# Results published in ChEMBL document CHEMBL1201862, “PubChem BioAssay data set” (2004).
#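 The compound was tested at five concentrations on cells cultured in 96-well plates, with a 48-hour exposure period. The concentration for 50% growth inhibition is given as GI50.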 Calls of active or inactive are those of the source. No stated cut-off is given here; in the data, active = GI50 up to about 1.1 µM and inactive = higher.
# Experiments:
# Assay in all cases: NCI tumour cell line growth inhibition, 48 h
# [1] = system: MDA-MB-231
# [2] = system: SF-539
# [3] = system: UACC-62
# [4] = system: HL-60
# [5] = system: MCF7
# [6] = system: OVCAR-3
# [7] = system: A549
# [8] = system: COLO 205
# [9] = system: Hs-578T
# [10] = system: SF-268
# [11] = system: K562
# [12] = system: SK-MEL-5
# [13] = system: KM12
# [14] = system: SW-620
# [15] = system: Malme-3M
# [16] = system: RXF 393
# [17] = system: HCC 2998
# [18] = system: BT-549
# [19] = system: CCRF-CEM
# [20] = system: HCT-116
# [21] = system: NCI-H522
# [22] = system: SK-MEL-28
# [23] = system: OVCAR-4
# [24] = system: PC-3
# [25] = system: U-251
# [26] = system: MDA-N
# [27] = system: NCI-H226
# [28] = system: EKVX
# [29] = system: NCI-H460
# [30] = system: SNB-19
# [31] = system: SNB-75
# [32] = system: SN12C
# [33] = system: NCI/ADR-RES
# [34] = system: NCI-H23
# [35] = system: MOLT-4
# [36] = system: SK-OV-3
# [37] = system: UACC-257
# [38] = system: HOP-62
# [39] = system: RPMI-8226
# [40] = system: UO-31
# [41] = system: CAKI-1
# [42] = system: HT-29
# [43] = system: SK-MEL-2
# [44] = system: HCT-15
# [45] = system: TK-10
# [46] = system: LOX IMVI
# [47] = system: MDA-MB-435
# [48] = system: SR
# [49] = system: IGROV-1
# [50] = system: OVCAR-8
# [51] = system: SF-295
# [52] = system: M14
# [53] = system: DU-145
# [54] = system: 786-0
# [55] = system: T47D
# [56] = system: OVCAR-5
# [57] = system: ACHN
compound,measurement,setting,value
CN1C2CC(=O)CC1[C@@H]1OC(c3ccccc3)O[C@H]21 (stereo not given in full),GI50,[1],> 100 µM (inactive)
same,GI50,[2],> 100 µM (inactive)
same,GI50,[3],> 100 µM (inactive)
same,GI50,[4],> 100 µM (inactive)
same,GI50,[5],> 100 µM (inactive)
same,GI50,[6],> 100 µM (inactive)
same,GI50,[7],> 100 µM (inactive)
same,GI50,[8],> 100 µM (inactive)
same,GI50,[9],> 100 µM (inactive)
same,GI50,[10],> 100 µM (inactive)
same,GI50,[11],> 100 µM (inactive)
same,GI50,[12],> 100 µM (inactive)
same,GI50,[13],> 100 µM (inactive)
same,GI50,[14],> 100 µM (inactive)
same,GI50,[15],> 100 µM (inactive)
same,GI50,[16],> 100 µM (inactive)
same,GI50,[17],> 100 µM (inactive)
same,GI50,[18],> 100 µM (inactive)
same,GI50,[19],> 100 µM (inactive)
same,GI50,[20],> 100 µM (inactive)
same,GI50,[21],> 100 µM (inactive)
same,GI50,[22],> 100 µM (inactive)
same,GI50,[23],> 100 µM (inactive)
same,GI50,[24],> 100 µM (inactive)
same,GI50,[25],> 100 µM (inactive)
same,GI50,[26],> 100 µM (inactive)
same,GI50,[27],> 100 µM (inactive)
same,GI50,[28],> 100 µM (inactive)
same,GI50,[29],> 100 µM (inactive)
same,GI50,[30],> 100 µM (inactive)
same,GI50,[31],> 100 µM (inactive)
same,GI50,[32],> 100 µM (inactive)
same,GI50,[33],> 100 µM (inactive)
same,GI50,[34],> 100 µM (inactive)
same,GI50,[35],> 100 µM (inactive)
same,GI50,[36],> 100 µM (inactive)
same,GI50,[37],> 100 µM (inactive)
same,GI50,[38],> 100 µM (inactive)
same,GI50,[39],> 100 µM (inactive)
same,GI50,[40],> 100 µM (inactive)
same,GI50,[41],> 100 µM (inactive)
same,GI50,[42],> 100 µM (inactive)
same,GI50,[43],> 100 µM (inactive)
same,GI50,[44],> 100 µM
same,GI50,[45],> 100 µM (inactive)
same,GI50,[46],> 100 µM (inactive)
same,GI50,[47],> 100 µM (inactive)
same,GI50,[48],> 100 µM (inactive)
same,GI50,[49],> 100 µM (inactive)
same,GI50,[50],> 100 µM (inactive)
same,GI50,[51],> 100 µM (inactive)
same,GI50,[52],> 100 µM (inactive)
same,GI50,[53],> 100 µM (inactive)
same,GI50,[54],> 100 µM (inactive)
same,GI50,[55],> 100 µM (inactive)
N#Cc1nc(CCN2C(=O)c3ccccc3C2=O)oc1N,GI50,[1],> 100 µM (inactive)
same,GI50,[2],> 100 µM (inactive)
same,GI50,[5],> 100 µM (inactive)
same,GI50,[6],> 100 µM (inactive)
same,GI50,[7],> 100 µM (inactive)
same,GI50,[8],> 100 µM (inactive)
same,GI50,[9],> 100 µM (inactive)
same,GI50,[10],> 100 µM (inactive)
same,GI50,[11],> 100 µM (inactive)
same,GI50,[12],> 100 µM (inactive)
same,GI50,[13],4.45 µM (inactive)
same,GI50,[14],> 100 µM (inactive)
same,GI50,[15],> 100 µM (inactive)
same,GI50,[16],> 100 µM (inactive)
same,GI50,[17],0.0845 µM (active)
same,GI50,[18],> 100 µM (inactive)
same,GI50,[19],> 100 µM (inactive)
same,GI50,[20],> 100 µM (inactive)
same,GI50,[21],> 100 µM (inactive)
same,GI50,[56],> 100 µM (inactive)
same,GI50,[22],> 100 µM (inactive)
same,GI50,[23],> 100 µM (inactive)
same,GI50,[24],> 100 µM (inactive)
same,GI50,[25],> 100 µM (inactive)
same,GI50,[26],> 100 µM (inactive)
same,GI50,[27],> 100 µM (inactive)
same,GI50,[28],> 100 µM (inactive)
same,GI50,[29],> 100 µM (inactive)
same,GI50,[30],> 100 µM (inactive)
same,GI50,[57],> 100 µM (inactive)
same,GI50,[31],< 0.01 µM (active)
same,GI50,[32],> 100 µM (inactive)
same,GI50,[33],> 100 µM (inactive)
same,GI50,[34],> 100 µM (inactive)
same,GI50,[35],> 100 µM (inactive)
same,GI50,[36],> 100 µM (inactive)
same,GI50,[37],> 100 µM (inactive)
same,GI50,[38],> 100 µM (inactive)
same,GI50,[39],> 100 µM (inactive)
same,GI50,[40],> 100 µM (inactive)
same,GI50,[41],> 100 µM (inactive)
same,GI50,[42],> 100 µM (inactive)
same,GI50,[43],> 100 µM (inactive)
same,GI50,[44],> 100 µM
same,GI50,[45],> 100 µM (inactive)
same,GI50,[46],> 100 µM (inactive)
same,GI50,[47],> 100 µM (inactive)
same,GI50,[48],> 100 µM (inactive)
same,GI50,[49],> 100 µM (inactive)
same,GI50,[50],> 100 µM (inactive)
same,GI50,[51],> 100 µM (inactive)
same,GI50,[52],> 100 µM (inactive)
same,GI50,[53],> 100 µM (inactive)
same,GI50,[54],> 100 µM (inactive)
same,GI50,[55],> 100 µM (inactive)
